Consider 2 compounds from ChEMBL document CHEMBL1212929, “Glucosylated deferiprone and its brain uptake: implications for developing glucosylated hydroxypyridinone analogues intended to cross the blood-brain barrier” (J Med Chem, 2010).

Series [1] is described as follows: Biodistribution in Dunkin-Hartley guinea pig brain parenchyma at 800 uM, iv after 20 mins using [3H]mannitol vascular space marker by scintillation counting. It is filed as ADME, organism-based, Cavia porcellus. Conditions: in vivo.
The nature of series [2]: Biodistribution in Dunkin-Hartley guinea pig brain at 800 uM, iv after 20 mins using [3H]mannitol vascular space marker by scintillation counting. It is filed as ADME, organism-based, Cavia porcellus. Conditions: in vivo.

Take `Cc1c(O[C@@H]2O[C@H](CO)[C@@H](O)[C@H](O)[C@H]2O)c(=O)ccn1C`: the Drug uptake in series [1] and in series [2] was below 0.001 mL/g each time.
Consider `Cc1c(O)c(=O)ccn1C` [DEFERIPRONE], for which the Drug uptake is 0.044 mL/g in series [1] and 0.052 mL/g in series [2].
